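Test compounds were applied to cells in 96-well plates for 48 hours at 5 doses. TGI marks complete inhibition of growth.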 A value given as a limit tells only on which side of the number the result lay.

We go through nine compounds from PubChem BioAssay (NCI).

Test systems include SNB-19 CNS; OVCAR-8 ovarian; SF-539 CNS; NCI-H522 lung; MALME-3M melanoma; KM12 colon; LOX IMVI melanoma; HCC-2998 colon; UO-31 renal; SK-OV-3 ovarian; CCRF-CEM leukemia; A498 renal; UACC-257 melanoma; SF-295 CNS; ACHN renal; T-47D breast; MCF7 breast; SR leukemia.
What all share (experiment): NCI tumour cell line growth inhibition, 48 h

`CC(=O)NC(CCCNC(=O)OCc1ccccc1)C(=O)O` (stereo unspecified): the TGI with SNB-19 CNS, in the experiment with OVCAR-8 ovarian, in the experiment with SF-539 CNS, with NCI-H522 lung, in the experiment with MALME-3M melanoma and with KM12 colon was greater than 100 µM in each case. The TGI in the experiment on LOX IMVI melanoma, in the experiment with HCC-2998 colon, in the experiment on UO-31 renal, with SK-OV-3 ovarian, in the experiment on CCRF-CEM leukemia and in the experiment on A498 renal was greater than 100 µM throughout. Further, the TGI with UACC-257 melanoma, with SF-295 CNS and with ACHN renal was greater than 100 µM throughout.

In the case of `C[N+](C)(C)CCOP(=O)([O-])OCCNC(=O)c1ccc2ccccc2c1`, the TGI with SNB-19 CNS, in the experiment with T-47D breast, in the experiment with OVCAR-8 ovarian, with SF-539 CNS, in the experiment with NCI-H522 lung and in the experiment with MALME-3M melanoma was greater than 100 µM in each case. The TGI in the experiment with KM12 colon, with LOX IMVI melanoma, with MCF7 breast, in the experiment with HCC-2998 colon, with UO-31 renal and with SR leukemia was greater than 100 µM each time. In addition, the TGI with SK-OV-3 ovarian, with CCRF-CEM leukemia, with UACC-257 melanoma, with SF-295 CNS and in the experiment with ACHN renal was greater than 100 µM throughout.

For `CCOC(=O)C1=C(c2ccccc2)N(C(C)=O)Cc2ccccc21`, the TGI in the experiment on SNB-19 CNS is greater than 100 µM; in the experiment with OVCAR-8 ovarian, greater than 100 µM; in the experiment with SF-539 CNS, 30.9 µM; with NCI-H522 lung, 51.7 µM; with MALME-3M melanoma, 46.7 µM; in the experiment with KM12 colon it was 30.3 µM. Besides, the TGI with LOX IMVI melanoma is 33.2 µM; with HCC-2998 colon, greater than 100 µM; in the experiment on UO-31 renal, greater than 100 µM; with SR leukemia, 41.7 µM; in the experiment with SK-OV-3 ovarian, greater than 100 µM; with CCRF-CEM leukemia, 78.7 µM. Besides, the TGI turned out to be 34.6 µM with UACC-257 melanoma, 37.8 µM in the experiment on SF-295 CNS and 66.7 µM in the experiment on ACHN renal.

As to `CCSc1nnc(-c2ccccc2)nc1Cc1ccc(OC)cc1`, the TGI in the experiment on SNB-19 CNS, in the experiment on OVCAR-8 ovarian, in the experiment with SF-539 CNS, with NCI-H522 lung, with MALME-3M melanoma and in the experiment with KM12 colon was greater than 100 µM each time. In addition, the TGI in the experiment on LOX IMVI melanoma, in the experiment with HCC-2998 colon, in the experiment with UO-31 renal, in the experiment with SR leukemia, in the experiment on SK-OV-3 ovarian and in the experiment on CCRF-CEM leukemia was greater than 100 µM throughout. In addition, the TGI with A498 renal, with UACC-257 melanoma, in the experiment on SF-295 CNS and in the experiment on ACHN renal was greater than 100 µM in each case.

On to `CC(=O)O[C@H]1C(=O)[C@@]2(C)C(C(OC(=O)c3ccccc3)[C@]3(O)CC(OC(=O)C(O)C(NC(=O)c4ccccc4)c4cccc(Cl)c4)C(C)=C1C3(C)C)[C@]1(OC(C)=O)CO[C@@H]1C[C@@H]2O` (stereo partly specified), for which the TGI is greater than 10 µM in the experiment on SNB-19 CNS; greater than 10 µM with T-47D breast; greater than 10 µM in the experiment with OVCAR-8 ovarian; 9.73 µM with SF-539 CNS; greater than 10 µM with NCI-H522 lung; greater than 10 µM in the experiment with MALME-3M melanoma. Also, the TGI in the experiment on KM12 colon is greater than 10 µM; in the experiment on LOX IMVI melanoma it was greater than 10 µM; with MCF7 breast it was greater than 10 µM; in the experiment on HCC-2998 colon, greater than 10 µM; in the experiment with SR leukemia it was 6.72 µM; in the experiment on SK-OV-3 ovarian, greater than 10 µM. Also, the TGI in the experiment on CCRF-CEM leukemia, in the experiment on UACC-257 melanoma, with SF-295 CNS and in the experiment on ACHN renal was greater than 10 µM in each case.

Consider `N#CC1CCCCC1NC1(C#N)CCCCC1` (stereo unspecified), for which the TGI with SNB-19 CNS, with OVCAR-8 ovarian, in the experiment on SF-539 CNS, in the experiment with NCI-H522 lung, in the experiment on MALME-3M melanoma and with KM12 colon was greater than 100 µM throughout. Moreover, the TGI with LOX IMVI melanoma, with HCC-2998 colon, in the experiment with UO-31 renal, in the experiment with SK-OV-3 ovarian, in the experiment with CCRF-CEM leukemia and in the experiment on A498 renal was greater than 100 µM in each case. For the same compound, the TGI with UACC-257 melanoma and in the experiment on SF-295 CNS was greater than 100 µM each time.

In the case of `CCCCCC1=C2C(c3ccc(OC)cc3)=C(N)C(c3ccc(OC)cc3)=C3NC(=O)C(C=C1)C32` (stereo unspecified), the TGI is greater than 100 µM in the experiment on SNB-19 CNS; greater than 100 µM with T-47D breast; greater than 100 µM in the experiment with OVCAR-8 ovarian; 68 µM in the experiment with NCI-H522 lung; 53.7 µM in the experiment on MALME-3M melanoma; greater than 100 µM in the experiment with KM12 colon. Further, the TGI with LOX IMVI melanoma, in the experiment with MCF7 breast, in the experiment on HCC-2998 colon, with UO-31 renal, in the experiment with SK-OV-3 ovarian and in the experiment on CCRF-CEM leukemia was greater than 100 µM each time. Besides, the TGI in the experiment with A498 renal, with UACC-257 melanoma, in the experiment on SF-295 CNS and in the experiment on ACHN renal was greater than 100 µM each time.

`C[N+]1(C)C[C@@H](O)C[C@@H]1C(=O)[O-]`: the TGI in the experiment on SNB-19 CNS, with OVCAR-8 ovarian, in the experiment with SF-539 CNS, in the experiment on NCI-H522 lung, with MALME-3M melanoma and with KM12 colon was greater than 100 µM each time. For the same compound, the TGI with LOX IMVI melanoma, with HCC-2998 colon, in the experiment on UO-31 renal, in the experiment on SR leukemia, with SK-OV-3 ovarian and in the experiment on CCRF-CEM leukemia was greater than 100 µM throughout. The TGI in the experiment on A498 renal, in the experiment with UACC-257 melanoma, in the experiment with SF-295 CNS and in the experiment with ACHN renal was greater than 100 µM throughout.

As for `CCOC(=O)CC(NCc1ccc(N=Cc2nc3ccc(C(F)(F)F)cc3nc2-c2ccccc2)cc1)C(=O)OCC` (stereo unspecified), the TGI with SNB-19 CNS was greater than 69.8 µM; with OVCAR-8 ovarian it was greater than 100 µM; with SF-539 CNS it was greater than 58 µM; with NCI-H522 lung, greater than 100 µM; in the experiment on MALME-3M melanoma, greater than 100 µM; in the experiment on KM12 colon, greater than 100 µM. Besides, the TGI with LOX IMVI melanoma, with HCC-2998 colon, with UO-31 renal, with SR leukemia, in the experiment with SK-OV-3 ovarian and in the experiment with CCRF-CEM leukemia was greater than 100 µM in each case. The TGI in the experiment with A498 renal, in the experiment on UACC-257 melanoma, in the experiment with SF-295 CNS and in the experiment with ACHN renal was greater than 100 µM each time.
